The nature of data set [1]: Plasma protein binding, human. In kind it is in vitro ADME. The settings on record: read-out: PPB fu (human). As for the experimental part:
Incubation: Test compounds or the positive control warfarin were introduced into 10% plasma samples (Sourced from WuXi DMPK labs or from commercial vendors) to a concentration of 2 μM. A portion of 150 μL of the compound-containing plasma sample was added to one chamber of a 96-well equilibrium HTD dialysis plate. An equal volume of dialysis buffer was added to the corresponding chamber. A plasma sample was also taken before the incubation and designated as the T0 sample, serving for recovery calculation. The plate was incubated in a humidified 5% CO2 incubator at 37° C. for 4 hours. Each incubation was set up in triplicate.
Sample extraction and preparation: Following the incubation period, samples of 50 μL were drawn from both the plasma side and the buffer side and each was mixed with an equal volume of blank plasma. All matrix-matched samples were quenched using a stop solution containing an internal standard (IS).
Sample Analysis: The samples were subsequently analyzed by LC-MS/MS. The concentrations of the test compound in plasma and buffer samples were quantified based on the peak area ratio of analyte to the internal standard, with no requirement for a standard curve.

The test system of data set [2] is Distal Tibial Injury (DTI) rats. The experiment in a line: Distal Tibial Injury (DTI) model, von Frey. The class given is in vivo, rat. The settings on record: 100 mg/kg oral, 6 hours post-dose. As to the method:
(§1) All animal experiments were carried out according to the Guide for the Care and Use of Laboratory Animals (2011 edition) and approved by the Israel National Institutional Animal Care and Use Committee (IACUC). Young adult male SD rats (Envigo RMS, Israel), were used for in vivo efficacy: Spared Nerve Injury (SNI), Distal Tibial Injury (DTI) and Post-operative Pain (POP), 200-220 grams, Chronic Post-Ischemia Pain (CPIP) 275-325 grams, Monosodium iodoacetate-induced osteoarthritis (MIA-OA) 180-220 grams; for in vivo safety: 200-250 grams at study initiation. […] The health status of the animals used in this study was examined upon their arrival. Only animals in good health were acclimatized to laboratory conditions and were used in the studies. All studies were performed following at least five days of animal acclimation. During acclimation and throughout the entire study duration, animals were housed within a limited-access rodent facility and kept in groups with a maximum of 2-3 rats per polypropylene cage. The cages were fitted with solid bottoms and filled with sterile wood shavings as bedding material. Animals were provided ad libitum with a commercial, sterile rodent diet and had free access to drinking water that was supplied to each cage via polyethylene bottles with stainless steel sipper tubes. […] Water was monitored periodically. […]

For data set [3], the system named is Post-operative Pain (POP) rats. Kind of data set: Post-operative Pain model, mechanical PWT. In kind it is in vivo, rat. As to conditions: 100 mg/kg, 6 hours post-dose. As for the experimental part: as §1, with “material.” for “material. Animals were provided ad libitum with a commercial, sterile rodent diet and had free access to drinking water that was supplied to each cage via polyethylene bottles with stainless steel sipper tubes.”
Post-operative Pain (POP): For this model, animals were anesthetized by medetomidine/ketamine sodium IP. […] On the following day, animal responses to von Frey (VF) filaments and hot-plate testing were recorded. […]

Data set [4] deals with T1, hTRPV1 (Homo sapiens, UniProt Q8NER1).
T1 construct: CDS of NM_080704.4, inserted into the multiple cloning site of pcDNA3.1(+); host or cells: CHO/hKv7.2/3
The experiment in a line: hTRPV1 dual activity electrophysiology, CHO cells co-expressing hKv7.2/3 and hTRPV1. In kind it is cell-based. As to conditions: 100 nM.

For data set [5], the system named is COX-1/2. Kind of data set: Functional selectivity panel, COX-1/2. The class given is biochemical. The settings on record: up to 10 micromolar. As to the method: A broad panel of 78 recombinant targets was tested for pharmacologic activity in vitro through a variety of functional assays (Eurofins DiscoverX, USA), as part of the National Institute of Neurological Disorders and Stroke (NINDS) Preclinical Screening Platform for Pain (PSPP) program. The biological targets for the in vitro profiling have been selected based on avoiding opioid receptor stimulation and targets known to be associated with adverse events or targeted by drugs of abuse. […] For each test, a reference compound was evaluated at the target of interest as a positive control.

In data set [6] the test system is CHO-K1 cells. Kind of data set: In vitro micronucleus. In kind it is cell-based. As for the experimental part: (§2) The micronucleus assay was performed according to the regulatory guidelines. In brief, CHO-K1 cells were plated at 10000 cells/well in 3 plates and incubated In CHO-K1 growth medium (containing F12K, 10% FBS and 1% PS) overnight.
(§3) As a control for the S9 treatment, plate No. 1, cells were treated with cyclophosphamide as a positive control, for 3 hours. For plate No. 2, without S9 treatment, cells were treated with mitomycin C as a positive control, compounds for 3 hours, and for plate No. 3, without S9 treatment, cells were treated with bleomycin sulfate as a positive control continuously for 24 hours.
(§4) On the following day, 6 μg/mL of cytochalasin B were added to each well and plates were further incubated overnight. In the day after medium was replaced with a combined 10 μg/mL Hoechst dye solution and 0.5 μM calcein-AM in 100 μL warm DPBS for 30 minutes and the plates were scanned using CQ1 high-content analysis system.

Data set [7] is described as follows: In vitro micronucleus. In kind it is cell-based. The settings on record: hamster, cho-k1 cells, read-out: Cytotoxicity (%) Absolute EC50. As for the experimental part:
as §2, §3, §4

Entries after “also recorded” stand apart in the source; their conditions may differ.

T1 sequence (Q8NER1 whole entry): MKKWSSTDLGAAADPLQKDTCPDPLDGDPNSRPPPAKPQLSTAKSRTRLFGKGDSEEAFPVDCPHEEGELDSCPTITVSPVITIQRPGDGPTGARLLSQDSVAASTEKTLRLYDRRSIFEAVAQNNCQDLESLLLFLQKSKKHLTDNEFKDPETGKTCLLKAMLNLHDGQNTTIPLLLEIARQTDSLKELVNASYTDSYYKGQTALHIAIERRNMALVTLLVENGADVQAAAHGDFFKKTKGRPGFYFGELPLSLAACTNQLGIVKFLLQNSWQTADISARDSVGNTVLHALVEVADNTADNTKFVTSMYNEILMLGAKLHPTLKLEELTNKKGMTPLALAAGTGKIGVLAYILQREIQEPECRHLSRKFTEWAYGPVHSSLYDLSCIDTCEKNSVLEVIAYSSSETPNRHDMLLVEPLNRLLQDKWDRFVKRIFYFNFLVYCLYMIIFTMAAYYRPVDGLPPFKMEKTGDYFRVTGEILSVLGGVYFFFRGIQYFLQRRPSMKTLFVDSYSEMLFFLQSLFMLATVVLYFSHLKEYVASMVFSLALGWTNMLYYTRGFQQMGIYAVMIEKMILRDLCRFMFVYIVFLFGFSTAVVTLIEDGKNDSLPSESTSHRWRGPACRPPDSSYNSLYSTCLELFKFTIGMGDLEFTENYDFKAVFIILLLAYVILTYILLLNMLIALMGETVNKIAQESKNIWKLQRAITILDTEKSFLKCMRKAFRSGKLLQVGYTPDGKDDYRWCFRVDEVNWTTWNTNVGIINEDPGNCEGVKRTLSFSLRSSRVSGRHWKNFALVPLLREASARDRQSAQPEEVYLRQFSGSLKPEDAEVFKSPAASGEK

Turning to `O=C(Cc1cncc(-n2cc(Cl)c3cc(Cl)cc(Cl)c32)c1)N[C@@H]1COC[C@H]1O` [Compound 661], in data set [1], the fraction unbound at 4 h, 2 µM was determined as 0.003. The “Reversal of mechanical PWT” value in data set [2] came to 45.9%. For the same compound, the “Mechanical PWT” value in data set [3] was “did not affect the mechanical PWT”.
For the compound `O=C(Cc1cc(-n2cc(Cl)c3cc(Cl)cc(Cl)c32)ccc1F)NCCO` [Compound 627], in data set [4], the “hTRPV1 inhibition without hKv7.2/3 activation” value is given as “lack of hTRPV1 inhibition-potency gain; also recorded: TRPV1 could not be inhibited even at 100 nM”.
For `O=C(Cc1nccc(-n2cc(Cl)c3cc(Cl)cc(Cl)c32)n1)NC1COCC1O` (stereo not drawn) [Compound 760], the “Effect on COX-1/2” value in data set [5] is “no effect”. Also, in data set [6], the “Micronucleus formation” value is reported as “lacks significant micronucleus formation”. Besides, the “Micronucleus response Absolute MEC” value is greater than 200 µM in data set [6] (Plate 1 with S9, 3 hours); greater than 200 µM in data set [6] (Plate 2 without S9, 3 hours); greater than 200 µM in data set [6] (Plate 3 without S9, 24 hours). The CC50 in data set [6] (Plate 1 with S9, 3 hours, read-out: Cytotoxicity (%) Absolute EC50) was greater than 200 µM. Moreover, the CC50 at 3 h in data set [7] (Plate 2 without S9, 3 hours) is greater than 200 µM. In data set [7] (Plate 3 without S9, 24 hours), the CC50 at 24 h stood at 81.2 µM.

(Values after patent publication US20260327211A1, “MODULATORS OF A POTASSIUM CHANNEL AND OF TRPV1 CHANNEL AND USES THEREOF” (Bsense Bio Therapeutics Ltd., priority 2023, published 2026).)
